# Data: PubChem BioAssay AID434987 (Southern Research Specialized Biocontainment Screening …, 2010)
# The source made the active and inactive calls. The rule behind the calls is not given here.
# System: M. tuberculosis H37Rv growth inhibition with meropenem
# Assay: dose response, H37Rv, with and without meropenem (AID 434987);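 note: growth over 7 days at 37 °C before Alamar Blue read on day 9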
# [1] = M. tuberculosis H37Rv growth inhibition, measured here: IC50 without meropenem
# [2] = M. tuberculosis H37Rv growth inhibition, measured here: IC90 without meropenem
# [3] = measured here: IC90 with meropenem
SMILES,IC50,IC50 [1] [µM],IC90 [2] [µM],IC90 [3] [µM]
COc1nc(-c2ccccc2)ccc1-c1noc(-c2cccnc2)n1,> 100 µM (inactive),> 100,> 100,> 100
O=C(Nc1nc2ccccc2n1CCN1CCCC1)C1CCCCC1,8.68 µM,23.9,47.2,27.5
Cc1c(OCc2ccc(C(=O)O)cc2)ccc2c(-c3ccccc3)cc(=O)oc12,1.42 µM,46.2,96.7,2.09
O=C(CSc1nc2ncc(Cl)cc2[nH]1)Nc1cccc(F)c1,> 100 µM (inactive),> 100,> 100,> 100
COc1ccc(C(=O)Nc2oc(-c3ccccc3)c(-c3ccccc3)c2C#N)cc1OC,25.2 µM (inactive),38.7,> 100,> 100
COc1ccc(Cn2c(=O)[nH]c3cc(C(=O)N4CCN(c5ccccc5F)CC4)ccc3c2=O)cc1,> 100 µM (inactive),> 100,> 100,> 100
Cc1ccc(NC(=O)CSc2n[nH]c(-c3ccco3)n2)cc1,> 100 µM (inactive),> 100,> 100,> 100
CSc1ncc(Cl)c(C(=O)Nc2cccc3ccccc23)n1,8.49 µM,43.5,> 100,> 100
CCOC(=O)c1cc(-c2ccc(C)cc2)n(CCC(=O)N2CCN(c3ccccn3)CC2)c1C,69.5 µM (inactive),89.4,> 100,> 100
O=C(/C=C/c1ccc2c(c1)OCO2)Nc1nc2ccccc2s1,> 100 µM (inactive),> 100,> 100,> 100
COc1cccc(-c2ccc(-c3noc(-c4ccccc4F)n3)c(OC)n2)c1,9.65 µM,> 100,> 100,> 12.5
CC(C)=CCC/C(C)=C/C=N/NC(=O)c1ccc([N+](=O)[O-])cc1,1.02 µM,49,> 100,> 100
O=C(Nc1ccc(Br)cc1)c1cccnc1N1CCCCC1,> 100 µM (inactive),> 100,> 100,> 100
COC(=O)c1c(NC(=O)c2ccc(C)cc2)csc1C,48.9 µM (inactive),84,> 100,> 100
C[C@@H]1CC=C[C@H]2[C@H]1C(=O)N(Cc1ccccc1)[C@H]2c1ccc(/C=C/c2ccccc2)cc1F,> 100 µM (inactive),> 100,> 100,> 100
Cc1cccc(NC(=O)Cn2cnc3c(oc4ccccc43)c2=O)c1C,> 100 µM (inactive),> 100,> 100,> 100
CCCc1nc2oc3c(OCC)ncnc3c2c2c1COC(C)(C)C2,72.5 µM (inactive),> 100,> 100,> 100
COc1ccc(-c2c(C(F)(F)F)oc3cc(OCC(=O)Nc4ccccc4C(F)(F)F)ccc3c2=O)cc1OC,> 100 µM (inactive),> 100,> 100,> 100
CCOC(=O)c1c(NC(=O)C(=O)N/N=C/c2ccccc2OC)sc2c1CCCCC2,> 100 µM (inactive),> 100,> 100,> 100
Cc1cccc(C)c1-n1c(C)cc(/C=C2\C(=O)NN(c3ccccc3)C2=O)c1C,> 100 µM (inactive),> 100,> 100,> 100

SMILES,IC50,IC50 [1] [µM],IC90 [2] [µM],IC90 [3] [µM]
Cc1cc(C)c2oc(-c3ccc(Cl)c(NC(=O)c4ccc(C#N)cc4F)c3)nc2c1,> 100 µM (inactive),> 100,> 100,> 100
Cc1ccc(C(=O)N2CCC3(CC2)Oc2ccc(F)cc2C(=O)C32CC(c3cccnc3)=NO2)s1 (stereo not given),97.5 µM (inactive),94.9,> 100,> 100
CN(C)c1ccc(N=Nc2cccc3ccoc23)cc1,> 100 µM (inactive),> 100,> 100,> 100
O=C(Nc1ccc(S(=O)(=O)N2CCCCC2)cc1)C1CCCN(C(=O)c2ccc(Cl)cc2)C1 (stereo not given),> 100 µM (inactive),> 100,> 100,> 100
N#Cc1c(C(F)(F)F)cc(-c2ccccc2)nc1SCc1nc(N)nc(N2CCOCC2)n1,> 100 µM (inactive),> 100,> 100,> 100
CCn1c(=O)c2cc(C(=O)N(C)c3ccccc3F)sc2c2ccccc21,29.2 µM,> 100,> 100,> 100
Cc1ccsc1C(=O)NNC(=O)c1csc(N2CCOCC2)n1,62.7 µM (inactive),> 100,> 100,> 100
COc1ccc(/C=N/Nc2nc(-c3ccc(C)cc3)c(NC(C)=O)s2)cc1OC,> 100 µM (inactive),> 100,> 100,> 100
Cc1c(C(=O)c2ccccc2)oc2ccc3ccccc3c12,> 100 µM (inactive),> 100,> 100,> 100
NC(=S)N/N=C/c1ccc2ccccc2c1,2.02 µM,> 100,> 100,> 100
NC(=S)N/N=C/c1cccc(/C=N/NC(N)=S)c1,25 µM,> 100,> 100,> 100
O=C(Nc1ccc(C(F)(F)F)cc1)c1cc(-c2cccnc2)nc2ccc(Br)cc12,> 100 µM (inactive),> 100,> 100,> 100
O=C1c2cccc3c(N4CCCCC4)ccc(c23)C(=O)N1c1ccccn1,84.8 µM (inactive),> 100,> 100,> 100
COc1cc(OC)cc(-c2cc3ccc(OC)cc3cn2)c1,29 µM (inactive),39,85.8,76.9
N#Cc1c(C(F)(F)F)cc(-c2ccccc2)nc1SCC(=O)Nc1sc2c(c1C#N)CCC2,> 100 µM (inactive),> 100,> 100,> 100
CC(C)C(=O)Nc1ccc(NC(=S)NC(=O)c2ccc([N+](=O)[O-])cc2)cc1,> 100 µM (inactive),> 100,> 100,> 100
Cc1cccc(Cn2c(N3CCN(c4ccccc4)CC3)nc3c2c(=O)n(C)c(=O)n3C)c1,> 100 µM (inactive),> 100,> 100,> 100
Cn1c(/C=N/c2nc3ccccc3[nH]2)nc2ccccc21,< 0.2 µM,3.82,> 100,4.17
CCO[C@H]1OC(C(=O)NCc2nc3ccccc3[nH]2)=C[C@@H](c2ccc(C(F)(F)F)cc2)[C@@H]1CCCO,> 100 µM (inactive),> 100,> 100,> 100
CCC(CC)c1nnc(NC(=O)c2ccc(N3CCCCC3)c([N+](=O)[O-])c2)s1,9.31 µM,75.9,> 100,44
